Results published in PubChem BioAssay AID2060900 (Molecular Pharmacology Branch, DTP, NCI, 2025).
Values belong to the molecule of their own block, whether it stands above or below them.

Test system: 521955-158-R2-J5-PDC complex spheroids, viability
Assay: Anticancer human tumor 521955-158-R2-J5-PDC patient-derived pancreatic carcinoma cell line growth inhibition [RAS]
Conditions: for IC50: curve of first compound; for viability, T/C: stronger effect = lower value
Method in brief: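 Multi-cell-type spheroids: tumor cells plus HUVEC endothelial cells and mesenchymal stem cells. RAS-pathway inhibitors were combined with targeted agents, each dosed in half-log steps down from clinical Cmax, or from 10 microM when Cmax was unknown.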

[1] = second compound 0.000949 µM, first compound 0.0316 µM
[2] = second compound 0.000949 µM, first compound 0.1 µM
[3] = second compound 0.000949 µM, first compound 0.316 µM
[4] = second compound 0.000949 µM, first compound 1 µM
[5] = second compound 0.003 µM, first compound 0.0316 µM
[6] = second compound 0.003 µM, first compound 0.1 µM
[7] = second compound 0.003 µM, first compound 0.316 µM
[8] = second compound 0.003 µM, first compound 1 µM
[9] = second compound 0.00949 µM, first compound 0.0316 µM
[10] = second compound 0.00949 µM, first compound 0.1 µM
[11] = second compound 0.00949 µM, first compound 0.316 µM
[12] = second compound 0.00949 µM, first compound 1 µM
[13] = second compound 0.03 µM, first compound 0.0316 µM
[14] = second compound 0.03 µM, first compound 0.1 µM
[15] = second compound 0.03 µM, first compound 0.316 µM
[16] = second compound 0.03 µM, first compound 1 µM
[17] = second compound 0.0949 µM, first compound 0.0316 µM
[18] = second compound 0.0949 µM, first compound 0.1 µM
[19] = second compound 0.0949 µM, first compound 0.316 µM
[20] = second compound 0.0949 µM, first compound 1 µM
[21] = second compound 0.3 µM, first compound 0.0316 µM
[22] = second compound 0.3 µM, first compound 0.1 µM
[23] = second compound 0.3 µM, first compound 0.316 µM
[24] = second compound 0.3 µM, first compound 1 µM
[25] = second compound 0.000949 µM, first compound 3.16 µM
[26] = second compound 0.000949 µM, first compound 10 µM
[27] = second compound 0.003 µM, first compound 3.16 µM
[28] = second compound 0.003 µM, first compound 10 µM
[29] = second compound 0.00949 µM, first compound 3.16 µM
[30] = second compound 0.00949 µM, first compound 10 µM
[31] = second compound 0.03 µM, first compound 3.16 µM
[32] = second compound 0.03 µM, first compound 10 µM
[33] = second compound 0.0949 µM, first compound 3.16 µM
[34] = second compound 0.0949 µM, first compound 10 µM
[35] = second compound 0.3 µM, first compound 3.16 µM
[36] = second compound 0.3 µM, first compound 10 µM
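Also: compound exposure lasted seven days before the viability read.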
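For viability, T/C in this document: spheroids also contain HUVEC endothelial cells and mesenchymal stem cells as stroma.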

IC50 (second compound 0.000949 µM): > 1000 nM
IC50 (second compound 0.003 µM): > 1000 nM
IC50 (second compound 0.00949 µM): > 1000 nM
IC50 (second compound 0.03 µM): > 1000 nM
IC50 (second compound 0.0949 µM): > 1000 nM
IC50 (second compound 0.3 µM): > 1000 nM
Structure (SMILES): CCN1CCN(Cc2ccc(Nc3ncc(F)c(-c4cc(F)c5nc(C)n(C(C)C)c5c4)n3)nc2)CC1 + CCn1c(-c2cccnc2C(C)OC)c2c3cc(ccc31)N1CCOC(CC(NC(=O)C(C(C)C)N(C)C(=O)C3(F)CCN(C(=O)C#CC(C)(C)N(C)C)CC3)C(=O)N3CCCC(N3)C(=O)OCC(C)(C)C2)C1
viability, T/C (second compound 0.000949 µM, first compound 0.00316 µM): 96.8%
viability, T/C (second compound 0.000949 µM, first compound 0.01 µM): 87.4%
viability, T/C [1]: 61.9%
viability, T/C [2]: 80.1%
viability, T/C [3]: 87.8%
viability, T/C [4]: 74.5%
viability, T/C (second compound 0.003 µM, first compound 0.00316 µM): 88.6%
viability, T/C (second compound 0.003 µM, first compound 0.01 µM): 89.2%
viability, T/C [5]: 81.9%
viability, T/C [6]: 75.7%
viability, T/C [7]: 79.1%
viability, T/C [8]: 70.7%
viability, T/C (second compound 0.00949 µM, first compound 0.00316 µM): 85.5%
viability, T/C (second compound 0.00949 µM, first compound 0.01 µM): 80.1%
viability, T/C [9]: 74.2%
viability, T/C [10]: 79.5%
viability, T/C [11]: 69.1%
viability, T/C [12]: 74%
viability, T/C (second compound 0.03 µM, first compound 0.00316 µM): 73.8%
viability, T/C (second compound 0.03 µM, first compound 0.01 µM): 89.7%
viability, T/C [13]: 76.9%
viability, T/C [14]: 75.1%
viability, T/C [15]: 73.1%
viability, T/C [16]: 73.6%
viability, T/C (second compound 0.0949 µM, first compound 0.00316 µM): 66.8%
viability, T/C (second compound 0.0949 µM, first compound 0.01 µM): 73.9%
viability, T/C [17]: 73.7%
viability, T/C [18]: 74.6%
viability, T/C [19]: 71.6%
viability, T/C [20]: 69.4%
viability, T/C (second compound 0.3 µM, first compound 0.00316 µM): 71.5%
viability, T/C (second compound 0.3 µM, first compound 0.01 µM): 60.8%
viability, T/C [21]: 59.9%
viability, T/C [22]: 58.1%
viability, T/C [23]: 61.6%
viability, T/C [24]: 61.1%

IC50 (second compound 0.000949 µM): > 10000 nM
IC50 (second compound 0.003 µM): 5110 nM
IC50 (second compound 0.00949 µM): 3120 nM
IC50 (second compound 0.03 µM): 1190 nM
IC50 (second compound 0.0949 µM): 4390 nM
IC50 (second compound 0.3 µM): 546 nM
Structure (SMILES): Cc1nc(N2CCC3(CC2)COC(C)C3N)c(CO)nc1Sc1ccnc(N)c1Cl (stereo unspecified) + CCn1c(-c2cccnc2C(C)OC)c2c3cc(ccc31)N1CCOC(CC(NC(=O)C(C(C)C)N(C)C(=O)C3(F)CCN(C(=O)C#CC(C)(C)N(C)C)CC3)C(=O)N3CCCC(N3)C(=O)OCC(C)(C)C2)C1
viability, T/C [1]: 72.8%
viability, T/C [2]: 64%
viability, T/C [3]: 50.8%
viability, T/C [4]: 59.4%
viability, T/C [25]: 52.6%
viability, T/C [26]: 50.8%
viability, T/C [5]: 74.3%
viability, T/C [6]: 61.3%
viability, T/C [7]: 73.6%
viability, T/C [8]: 61.4%
viability, T/C [27]: 49.4%
viability, T/C [28]: 46.4%
viability, T/C [9]: 75.7%
viability, T/C [10]: 61.8%
viability, T/C [11]: 61.6%
viability, T/C [12]: 50.4%
viability, T/C [29]: 50.1%
viability, T/C [30]: 48.4%
viability, T/C [13]: 83%
viability, T/C [14]: 64.4%
viability, T/C [15]: 54.2%
viability, T/C [16]: 49.2%
viability, T/C [31]: 50.8%
viability, T/C [32]: 47%
viability, T/C [17]: 68%
viability, T/C [18]: 66.3%
viability, T/C [19]: 55.8%
viability, T/C [20]: 54.1%
viability, T/C [33]: 55%
viability, T/C [34]: 45.6%
viability, T/C [21]: 59.1%
viability, T/C [22]: 46.3%
viability, T/C [23]: 53.9%
viability, T/C [24]: 51.6%
viability, T/C [35]: 45.4%
viability, T/C [36]: 42.8%

IC50 (second compound 0.000949 µM): 4500 nM
IC50 (second compound 0.003 µM): > 10000 nM
IC50 (second compound 0.00949 µM): 987 nM
IC50 (second compound 0.03 µM): > 10000 nM
IC50 (second compound 0.0949 µM): 1200 nM
IC50 (second compound 0.3 µM): 129 nM
Structure (SMILES): NC1c2ccccc2OC12CCN(c1cnc3c(N4CCCc5ncccc54)n[nH]c3n1)CC2 (stereo unspecified) + CCn1c(-c2cccnc2C(C)OC)c2c3cc(ccc31)N1CCOC(CC(NC(=O)C(C(C)C)N(C)C(=O)C3(F)CCN(C(=O)C#CC(C)(C)N(C)C)CC3)C(=O)N3CCCC(N3)C(=O)OCC(C)(C)C2)C1
viability, T/C [1]: 62.7%
viability, T/C [2]: 61.4%
viability, T/C [3]: 53.5%
viability, T/C [4]: 52.3%
viability, T/C [25]: 50.2%
viability, T/C [26]: 50%
viability, T/C [5]: 64%
viability, T/C [6]: 51%
viability, T/C [7]: 58.8%
viability, T/C [8]: 55.4%
viability, T/C [27]: 52.7%
viability, T/C [28]: 49.8%
viability, T/C [9]: 53.7%
viability, T/C [10]: 48.1%
viability, T/C [11]: 51.8%
viability, T/C [12]: 52.5%
viability, T/C [29]: 53.2%
viability, T/C [30]: 43.6%
viability, T/C [13]: 60.3%
viability, T/C [14]: 56.8%
viability, T/C [15]: 44.2%
viability, T/C [16]: 51.3%
viability, T/C [31]: 58.9%
viability, T/C [32]: 47.1%
viability, T/C [17]: 52.9%
viability, T/C [18]: 54.4%
viability, T/C [19]: 43.3%
viability, T/C [20]: 49.7%
viability, T/C [33]: 56.5%
viability, T/C [34]: 45.7%
viability, T/C [21]: 51.3%
viability, T/C [22]: 46.3%
viability, T/C [23]: 51.9%
viability, T/C [24]: 51.3%
viability, T/C [35]: 49.5%
viability, T/C [36]: 42.9%
